The subject of the experiment is rice seeds. Kind of experiment: rice seed germination in artificial paddy. Type of experiment: in vivo, Oryza sativa (Rice). To be noted: seeds incubated in 1 micromolar NR; water deprivation paddy, 37 seeds; only 1 seed germinated in that paddy's control. The protocol:
Conditions of “water deprivation” in this specification refers to the administration of less water than required for a seed to germinate typically. In the experiments described below, seeds subjected to a condition of “water deprivation” were given 2 mL of water 3 times a week, as opposed to 5 mL. In the rice experiment, the seeds subjected to “water deprivation” were not given any water after their planting in the artificial paddy. 5 mL of the solutions of the 3 compounds or combinations was placed in a small size weigh boats, along with water as the control. Up to 50 seeds were placed in the weigh boats. Incubation periods ranged from 18-24 hours at room temperature (recorded range of 55-65° F.). The seeds were then either placed in a germination chamber or planted in potting soil, as described below. For the rice plants, an artificial paddy field was built using two plastic bins filled with soil, and filled with water to a depth of 4 inches. A divider comprising of sticks was placed to delineate the experimental conditions comparing water soaked seeds or NR soaked seeds. In one paddy, water was replenished until germination was observed; the other received no added water. The bins were left outside for a total of 6 weeks; the daily temperatures ranged between 50 F to 95 F, and no rainfall was recorded during the experimental period. […]

Turning to `NC(=O)c1ccc[n+]([C@@H]2O[C@H](CO)[C@@H](O)[C@H]2O)c1` [NR, Nicotinamide riboside], the seeds germinated worked out at 32%.

For the origin of these results see patent US20200107549A1, “Enhancement of seed germination and plant growth under conditions of stress with pterostilbene, ellagic acid, nicotinamide riboside, and their combinations” (priority 2018, published 2020).
